Holding throughout (assay): growth of human tumour cells (NCI), 48 h
The test system of test [1] is SK-MEL-5 melanoma.
The subject of test [2] is OVCAR-8 ovarian.
For test [3], the system named is NCI/ADR-RES ovarian.
Test [4] concerns SF-539 CNS.
Test [5] concerns KM12 colon.
The test system of test [6] is ACHN renal.
The subject of test [7] is RPMI-8226 leukemia.
The test system of test [8] is CAKI-1 renal.

SMILES strings stand for the structures.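 A five-concentration, 48-hour dose response in 96-well plates underlies each endpoint, interpolated linearly between surrounding concentrations. GI50 is the concentration that inhibits growth by half. TGI denotes the concentration required for complete inhibition of growth.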

As for `COC(=O)C1=C(C)NC(C)=C(C(=O)OCC(C)C)C1c1ccccc1[N+](=O)[O-]` (centres undefined), the GI50 in test [1] is 2.72 µM; in test [2], 4.33 µM; in test [3] it was 2.07 µM; in test [4] it was 5.3 µM; in test [5], 2.94 µM; in test [6] it was 2.22 µM. Moreover, the results for the GI50 in test [7] and in test [8] were 3.25 µM and 2.29 µM, respectively. Moreover, the TGI is 10.1 µM in test [1]; 21 µM in test [2]; 16.8 µM in test [3]; 16.8 µM in test [4]; above 100 µM in test [5]; 10.6 µM in test [6]. For the same compound, the TGI in test [7] turned out to be 25.8 µM; in test [8] it was 11 µM.

Take `C#CCNCCN1C(=O)c2ccc3c4c(ccc(c24)C1=O)C(=O)N(CCNCC#C)C3=O`: the GI50 in test [1] was 1.65 µM; in test [2], 2.25 µM; in test [3] it was 4.07 µM; in test [4] it was 4.76 µM; in test [5] it was 3.35 µM; in test [6], 2.63 µM. Moreover, the GI50 is 10.6 µM in test [7] and 5.05 µM in test [8]. Moreover, the TGI in test [1] came to 6.56 µM; in test [2] it was 20.8 µM; in test [3], 24.4 µM; in test [4], 11.2 µM; in test [5], 11.4 µM; in test [6] it was 9.8 µM. For the same compound, the TGI in test [7] amounted to 43.2 µM; in test [8], 15.6 µM.

For `O1[As]2O[As]3O[As]1O[As](O2)O3`, the GI50 was 0.473 µM in test [1]; 1.89 µM in test [2]; 1.43 µM in test [3]; 0.347 µM in test [4]; 3.31 µM in test [5]; 2.54 µM in test [6]. Also, the values for the GI50 in test [7] and in test [8] were 0.29 µM and 0.567 µM, respectively. In addition, the TGI in test [1] came out at 1.75 µM; in test [2], 13.6 µM; in test [3] it was 5.11 µM; in test [4] it was 1.71 µM; in test [5], 13.9 µM; in test [6], 11.2 µM. In addition, the TGI in test [7] was found to be 2.89 µM; in test [8] it was 3.13 µM.

As for `Cc1cnc(CNC(=O)c2c(=O)c3ccc(N4CCCN(C)CC4)nc3n3c2sc2ccccc23)cn1`, the GI50 is 8.35 µM in test [1]; 1.09 µM in test [2]; 1.18 µM in test [3]; 3.76 µM in test [4]; 1.5 µM in test [5]; 0.305 µM in test [6]. Besides, the GI50 is 1.54 µM in test [7] and 2.49 µM in test [8]. Further, the TGI came to 22.1 µM in test [1]; 21.2 µM in test [2]; 30.6 µM in test [3]; 8.51 µM in test [4]; 10.1 µM in test [5]; 14.9 µM in test [6]. The TGI in test [7] was found to be 6.1 µM; in test [8], 18 µM.

With `C=C1c2ccoc2C[C@H]2[C@H]1CC[C@@]1(O)[C@@](C)(C(=O)OC)CCC[C@]21C`, the GI50 in test [1] is 18.1 µM; in test [2] it was above 100 µM; in test [3], 42.5 µM; in test [4], 69.3 µM; in test [5] it was 25.6 µM; in test [6], 16 µM. Further, the GI50 in test [7] was 21.5 µM; in test [8], 50.2 µM. In addition, the TGI in test [1] is 37.8 µM; in test [2], above 100 µM; in test [3], above 100 µM; in test [4], above 100 µM; in test [5], 89.7 µM; in test [6], 40.9 µM. Besides, the TGI was 54 µM in test [7] and above 100 µM in test [8].

`CCN1C(=O)N(CC)C2C1NN=c1s/c(=C\c3ccccn3)c(=O)n12` (centres undefined): the GI50 in test [1] is 2.46 µM; in test [2], 3.98 µM; in test [3], 0.977 µM; in test [4], 1.74 µM; in test [5], 1.29 µM; in test [6], 6.45 µM. Moreover, the GI50 is 1.71 µM in test [7] and 0.752 µM in test [8]. Further, the TGI was above 100 µM in test [1]; above 100 µM in test [2]; above 100 µM in test [3]; 7.9 µM in test [4]; above 100 µM in test [5]; above 100 µM in test [6]. Also, the TGI in test [7] and in test [8] was above 100 µM throughout.

As to `CC1=C(CCC(C)NCc2ccc(OCCCN3CCCCC3)cc2)C(C)(C)CCC1` (centres undefined), the GI50 in test [1] is 1.68 µM; in test [2], 2.48 µM; in test [3] it was 1.72 µM; in test [4], 1.64 µM; in test [5], 1.7 µM; in test [6], 1.69 µM. Besides, the GI50 in test [7] is 2.29 µM; in test [8] it was 1.82 µM. Besides, the TGI was found to be 3.06 µM in test [1]; 5.31 µM in test [2]; 3.47 µM in test [3]; 3.22 µM in test [4]; 3.36 µM in test [5]; 3.17 µM in test [6]. The values for the TGI in test [7] and in test [8] were 5.36 µM and 3.92 µM, respectively.

For the compound `N#Cc1nc2c(S(=O)(=O)c3ccc(Cl)cc3)c(N)n(CCCN3CCOCC3)c2nc1C#N`, the GI50 in test [1] was 6.67 µM; in test [2], 4.07 µM; in test [3], 33.2 µM; in test [4], 2.31 µM; in test [5], 12.3 µM; in test [6], 3.26 µM. The GI50 in test [7] was 4.68 µM; in test [8], 2.64 µM. For the same compound, the TGI was 20 µM in test [1]; above 100 µM in test [2]; above 100 µM in test [3]; 7.9 µM in test [4]; 34.7 µM in test [5]; 15.3 µM in test [6]. The TGI in test [7] was 41 µM; in test [8] it was 13.8 µM.

Consider `COC(=O)Nc1nc2ccc(Oc3cccc(NC(=O)Nc4cc(C(F)(F)F)ccc4F)c3)cc2[nH]1`, for which the GI50 in test [1] is 5.97 µM; in test [2] it was above 25 µM; in test [3], 24.8 µM; in test [4] it was above 21.6 µM; in test [5], 7.57 µM; in test [6] it was 24.4 µM. Further, the GI50 was above 20.8 µM in test [7] and 14.3 µM in test [8]. The TGI was above 17.4 µM in test [1]; above 25 µM in test [2]; above 25 µM in test [3]; above 25 µM in test [4]; above 25 µM in test [5]; above 25 µM in test [6]. The TGI in test [7] and in test [8] was above 25 µM in each case.

The values are drawn from PubChem BioAssay (NCI).
